In US20240091209A1, “COMPOSITIONS AND METHODS FOR TREATMENT OF HIDRADENITIS SUPPURATIVA” (SUZHOU KINTOR PHARMACEUTICALS, INC., priority 2021, published 2024):
“Also recorded” adds a separate entry of the source.

Assays:
[1] = test system: hidradenitis suppurativa (HS); test: Study of Proxalutamide for the treatment of HS (Hurley Stage after 7 days); type: in vivo, human
Experimental: (§1) Overview: Four subjects, 2 males and 2 females, were recruited to the Proxalutamide HS study. At baseline (day 0) all subjects were diagnosed by a dermatologist with HS Hurley Stage 3. All subjects presented HS in the axilla region. Two subjects (1 male and 1 female) were treated for 7 days with Proxalutamide monotherapy 200 mg daily and two subjects were treated for 7 days with Proxalutamide placebo monotherapy 200 mg daily
Efficacy Endpoint: Hurley Stage following 7 days of treatment.
Formula: Proxalutamie 200 mg q.d.
(§2) Results: Following 7 days of treatment with Proxalutamide 200 mg q.d., all four subjects returned to the clinic to be assessed by a dermatologist. On day 7 both subjects treated with Proxalutamie were diagnosed by a dermatologist with HS Hurley Stage 1. […] On day 7 both subjects treated with Proxalutamie placebo were diagnosed by a dermatologist with HS Hurley Stage 3.

[2] = Adverse events in the Proxalutamide HS study; type: in vivo, human; details: 200 mg q.d. for 7 days; 2 subjects
Experimental: as §1, §2

androgen receptor (AR) = molecular target: T1, androgen receptor (AR) (Homo sapiens, UniProt P10275); details: clinical evidence, no details given; cited from earlier work
T1 sequence (P10275 1-920): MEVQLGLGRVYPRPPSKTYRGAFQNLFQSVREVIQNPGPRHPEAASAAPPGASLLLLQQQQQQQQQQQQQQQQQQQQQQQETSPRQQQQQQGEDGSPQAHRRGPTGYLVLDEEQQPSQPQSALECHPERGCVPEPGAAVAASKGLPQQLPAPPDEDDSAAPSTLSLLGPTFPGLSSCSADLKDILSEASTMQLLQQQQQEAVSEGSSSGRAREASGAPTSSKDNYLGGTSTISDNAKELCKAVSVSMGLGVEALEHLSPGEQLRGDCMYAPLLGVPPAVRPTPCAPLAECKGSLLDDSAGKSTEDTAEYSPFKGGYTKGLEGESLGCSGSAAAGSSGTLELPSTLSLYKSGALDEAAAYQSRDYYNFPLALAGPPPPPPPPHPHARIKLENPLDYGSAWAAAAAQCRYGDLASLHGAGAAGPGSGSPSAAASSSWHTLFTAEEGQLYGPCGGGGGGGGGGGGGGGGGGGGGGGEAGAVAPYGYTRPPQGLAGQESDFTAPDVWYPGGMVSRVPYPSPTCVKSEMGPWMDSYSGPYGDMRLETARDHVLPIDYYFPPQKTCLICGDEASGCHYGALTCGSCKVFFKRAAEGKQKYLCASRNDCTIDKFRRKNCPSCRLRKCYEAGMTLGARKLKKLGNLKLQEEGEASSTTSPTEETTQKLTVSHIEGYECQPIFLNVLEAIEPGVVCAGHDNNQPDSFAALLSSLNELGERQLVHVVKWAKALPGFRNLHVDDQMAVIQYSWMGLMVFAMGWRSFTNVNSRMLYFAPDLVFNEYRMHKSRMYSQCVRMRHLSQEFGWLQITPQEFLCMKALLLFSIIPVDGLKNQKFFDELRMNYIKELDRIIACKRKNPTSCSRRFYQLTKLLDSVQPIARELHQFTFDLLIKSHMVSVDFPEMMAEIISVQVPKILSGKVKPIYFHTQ

[3] = men and women; cited from earlier work
[4] = test system: hidradenitis suppurativa (HS); details: 24 female patients; ethinyloestradiol 50 μg + cyproterone acetate 50 mg vs ethinyloestradiol 50 μg + norgestrel 500 μg; positive benefits in both groups; cited from earlier work

| SMILES | HS Hurley Stage diagnosed by a dermatologist on day 7 ([1]; 200 mg q.d. monotherapy for 7 days, 2 subjects (1 male, 1 female), axilla, baseline Hurley Stage 3, placebo subjects stayed at Stage 3) | Severity of HS compared to the placebo ([1]; within 7 days, 200 mg q.d.) | Adverse events reported by the subjects [2] | Effect on AR expression and activity (androgen receptor (AR)) | Safety in Phase II studies [3] | Benefit in HS versus ethinyloestradiol plus norgestrel [4] |
| --- | --- | --- | --- | --- | --- | --- |
| CC1(C)C(=O)N(c2ccc(C#N)c(C(F)(F)F)c2F)C(=S)N1c1ccc(CCCc2ncco2)nc1 [Proxalutamide, proxalutamide] | 1 | reduced the severity of HS | No adverse events; also recorded: without any adverse events | lowers AR expression and activity | safe in both men and women |  |
| CC(=O)O[C@]1(C(C)=O)CC[C@H]2[C@@H]3C=C(Cl)C4=CC(=O)[C@@H]5C[C@@H]5[C@]4(C)[C@H]3CC[C@@]21C [cyproterone acetate] |  |  |  |  |  | no statistically significant advantage |
